Assay results taken from patent US20230128304A1, “BENZIMIDAZOLE COMPOUND FOR THE TREATMENT OF METABOLIC DISORDERS” (ACHÉ LABORATÓRIOS FARMACÊUTICOS S.A., priority 2020, published 2023).

Tests used:
[1] = test system: SD rats maintained on a high fat diet (HFD); assay: Body composition (FoodScan near-infrared analyzer) in HFD model; format: in vivo, Sprague Dawley (SD) rats; conditions: for Fat / Final carcass weight / Protein / Water: adjusted means ± SEM; for Body composition parameters (water, protein, fat content, final carcass weight) against HFD Vehicle: 10 and 30 mg/kg
Method: (§1) In the HFD model, animals were initially maintained on a HFD for 4 weeks to induce a significant body weight (BW) gain before treatment was initiated. […] Two vehicle-treated control groups, fed either normal chow (Chow Vehicle) or HFD (HFD Vehicle), were also included.
The effects on body composition and on the weight of selected tissues (brown fat pad, epididymal fat pad, liver or gastrocnemius muscle) were assessed after the study was terminated (days 65/66). The weights of tissues were analyzed in two ways: i) BW on day 1 was used as a covariate to correct for differences in the BW at the start of the study or ii) the terminal BW (days 65/66) was used as a covariate to correct for changes due to weight loss (Table 3). […] Body composition was determined using FoodScan™ near-infrared analyzer analysis, which assessed water, protein and fat content and the final carcass weight (Table 4).

[2] = test system: SD rats maintained on a high fat diet (HFD); assay: Weight of selected tissues in HFD model; format: in vivo, Sprague Dawley (SD) rats
Method: In the HFD model, animals were initially maintained on a HFD for 4 weeks to induce a significant body weight (BW) gain before treatment was initiated. […] Two vehicle-treated control groups, fed either normal chow (Chow Vehicle) or HFD (HFD Vehicle), were also included. The effects on body composition and on the weight of selected tissues (brown fat pad, epididymal fat pad, liver or gastrocnemius muscle) were assessed after the study was terminated (days 65/66). […] Body composition was determined using FoodScan™ near-infrared analyzer analysis, which assessed water, protein and fat content and the final carcass weight (Table 4).

[3] = test system: SD rats maintained on a high fat diet (HFD); assay: Liver histopathology (NAFLD activity score) in HFD model; format: in vivo, Sprague Dawley (SD) rats
Method: (§2) The parameters were assessed following a chronic oral treatment with compound I at 10 and 30 mg/kg, dapagliflozin at 5 mg/kg, or vehicle to animals receiving HFD. Vehicle was also administered to animals receiving normal chow. The liver triglycerides were quantified using Cobas C111 clinical analyzer TRIGL 04657594 190. Glycogen quantification in liver samples was performed using commercial kits (Thermo BioVision, Glycogen Assay Kit, K646-100). Data is shown as means±SEM (A-D) or raw data including mean±SEM (E-H), n=9-10. The statistical analysis of liver triglycerides (A-B) and glycogen (C-D) was performed by general linear model of log transformed data (triglycerides only) with treatment and cohort as factors and termination order and BW on day 1 as covariates. Treatment groups were compared with HFD Vehicle by separate Williams' tests (compound I) or multiple t tests (dapagliflozin) and statistically significant differences are denoted by * (p<0.05), ** (p<0.01) and *** (p<0.001). Comparisons against Chow Vehicle were performed by multiple t tests (HFD Vehicle and dapagliflozin groups) or Dunnett's test (compound I) and statistically significant differences are denoted by † (p<0.05), †† (p<0.01) and ††† (p<0.001). Analysis of liver histopathology data (E-H) was done by exact Wilcoxon rank sum test. Statistical differences are denoted by * (p<0.05) in comparison with HFD Vehicle and by † (p<0.05), †† (p<0.01) and ††† (p<0.001) when compared with Chow Vehicle.
as §1
Liver was also assessed for NAFLD by histopathological analysis (FIGS. 3E-H). Samples were sectioned, stained and scored following a method previously described (Kleiner D E et al. (2005). Design and validation of a histological scoring system for nonalcoholic fatty liver disease. Hepatology. 41(6):1313-21; Nishida T et al. (2013). Spontaneous onset of nonalcoholic steatohepatitis and hepatocellular carcinoma in a mouse model of metabolic syndrome. Lab Invest. 93(2):230-41). The parameters analyzed were: steatosis (0-3), lobular inflammation (0-3) and hepatocellular ballooning (0-2). The total “NAFLD activity score” (NAS) score was calculated as the sum of all parameters (0-8). The liver of Chow Vehicle animals had no pathology scores (zero) for steatosis, lobular inflammation, hepatocellular ballooning and no score for total NAS.

[4] = test system: SD rats maintained on a high fat diet (HFD); assay: Body weight and food intake in HFD diet-induced obesity model; format: in vivo, Sprague Dawley (SD) rats; conditions: for Daily food intake compared with HFD Vehicle: compound II apart from isolated changes
Method: The benzimidazole compound of formula I, the comparative compound of formula II, and dapagliflozin were administered to animals fed HFD. Vehicle was administered to animals fed normal chow or HFD. Data is shown as adjusted means—SEM of n=9-10 animals (BW and BW gain) or n=5 cages (FI and average daily FI) per group. Data was analyzed by ANCOVA with BW on day 1 (A and C) or average FI during the baseline period (B and D) as covariate, excluding the Chow Vehicle group. Treatment groups were compared with HFD Vehicle by separate Williams' tests (compounds I or II) or multiple t tests (dapagliflozin) and considered statistically significant if p<0.05. Statistical significance is denoted as “a”, “b”, “c”, “d” and “e” for HFD groups treated respectively with dapagliflozin, compound II at 10 mg/kg, compound II at 30 mg/kg, compound I at 10 mg/kg and compound I at 30 mg/kg. # (p=0.051) and & (p=0.098) mean trends toward significance in comparisons with HFD Vehicle.
J Endocrinol. 234(3):255-267; Devenny J J et al. (2012). Weight loss induced by chronic dapagliflozin treatment is attenuated by compensatory hyperphagia in diet-induced obese (DIO) rats. Obesity. 20: 1645-1652.).
as §1

[5] = test system: SD rats maintained on a high fat diet (HFD); assay: Plasma glucose, insulin and HOMA-IR in HFD model; format: in vivo, Sprague Dawley (SD) rats
Method: as §1, with “Vehicle was administered to animals fed normal chow or HFD. The parameters were assessed on day 51. […] In” for “In”

[6] = target: MT1 receptor (Homo sapiens, UniProt P48039); assay: cell-based; conditions: read-out: MT1 agonism I.A. (intrinsic activity)
Chain of MT1 receptor (P48039 whole entry): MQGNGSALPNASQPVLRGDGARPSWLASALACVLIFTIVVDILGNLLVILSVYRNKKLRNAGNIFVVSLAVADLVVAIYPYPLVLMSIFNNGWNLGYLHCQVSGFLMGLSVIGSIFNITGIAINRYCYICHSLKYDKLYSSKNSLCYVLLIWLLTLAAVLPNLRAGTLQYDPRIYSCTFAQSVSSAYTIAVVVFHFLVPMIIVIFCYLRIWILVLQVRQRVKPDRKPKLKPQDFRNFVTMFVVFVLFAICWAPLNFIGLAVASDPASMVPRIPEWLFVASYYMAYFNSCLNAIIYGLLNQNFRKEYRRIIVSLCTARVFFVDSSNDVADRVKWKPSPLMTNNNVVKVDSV

[7] = test system: SD rats maintained on a high fat diet (HFD); assay: Liver triglycerides and glycogen in HFD model; format: in vivo, Sprague Dawley (SD) rats; conditions: 5 mg/kg
Method: as §2, with “Comparisons against Chow Vehicle were performed by multiple t tests (HFD Vehicle and dapagliflozin groups) or Dunnett's test (compound I) and statistically significant differences are denoted by † (p<0.05), †† (p<0.01) and ††† (p<0.001). Analysis of liver histopathology data (E-H) was done by exact Wilcoxon rank sum test. Statistical differences are denoted by * (p<0.05) in comparison with HFD Vehicle and by † (p<0.05), †† (p<0.01) and ††† (p<0.001) when compared with Chow Vehicle.” left out
As only the benzimidazole derivative of formula I according to the present invention, but not the comparative benzimidazole compound II, impacted BW gain, liver weight, plasma glucose levels and HOMA-IR in the HFD model, specific effects of compound I in the liver of the animals were evaluated in comparison with dapagliflozin and control groups. […]

[8] = 10 mg/kg, data adjusted for BW on day 1, mean ± SEM, in g (unit assumed)
[9] = 10 mg/kg, data adjusted for BW on day 65/66, mean ± SEM, in g (unit assumed)
[10] = 30 mg/kg, data adjusted for BW on day 1, mean ± SEM, in g (unit assumed)
[11] = 30 mg/kg, data adjusted for BW on day 65/66, mean ± SEM, in g (unit assumed)
[12] = 5 mg/kg, data adjusted for BW on day 1, mean ± SEM, in g (unit assumed)
[13] = 5 mg/kg, data adjusted for BW on day 65/66, mean ± SEM, in g (unit assumed)
[14] = 5 mg/kg p.o., day 51 after 4-hour fast, p<0.001

COc1cc2c(cc1Cl)nc(OC)n2CCNC(C)=O [Compound of formula I, N-[2-(5-Chloro-2,6-dimethoxy-benzoimidazol-1-yl)-ethyl]-acetamide]
Fat ([1]; 10 mg/kg): 20.5 ± 1.5 %
Final carcass weight ([1]; 10 mg/kg): 561.7 ± 13.0^ g
Protein ([1]; 10 mg/kg): 19.7 ± 0.4%
Water ([1]; 10 mg/kg): 56.1 ± 1.2 %
Fat ([1]; 30 mg/kg): 20.0 ± 1.7 %
Final carcass weight ([1]; 30 mg/kg): 584.0 ± 13.6^ g
Protein ([1]; 30 mg/kg): 19.6 ± 0.5 %
Water ([1]; 30 mg/kg): 56.5 ± 1.4 %
Body composition parameters (water, protein, fat content, final carcass weight) against HFD Vehicle [1]: No effect
Liver weight ([2]; 10 mg/kg, data adjusted for BW on day 1, mean ± SEM): 17.7 ± 0.8
Brown adipose tissue weight [2, 8]: 0.700 ± 0.091
Epididymal fat pads weight [2, 8]: 13.1 ± 1.5
Gastrocnemius weight [2, 8]: 3.30 ± 0.14
Brown adipose tissue weight [2, 9]: 0.719 ± 0.084
Epididymal fat pads weight [2, 9]: 13.9 ± 1.1
Gastrocnemius weight [2, 9]: 3.32 ± 0.15
Liver weight [2, 9]: 18.5 ± 0.5
Liver weight ([2]; 30 mg/kg, data adjusted for BW on day 1, mean ± SEM): 18.6 ± 0.9
Brown adipose tissue weight [2, 10]: 0.801 ± 0.066
Epididymal fat pads weight [2, 10]: 13.9 ± 1.0
Gastrocnemius weight [2, 10]: 3.35 ± 0.10
Brown adipose tissue weight [2, 11]: 0.808 ± 0.062
Epididymal fat pads weight [2, 11]: 14.2 ± 1.2
Gastrocnemius weight [2, 11]: 3.36 ± 0.10
Liver weight [2, 11]: 18.9 ± 0.5
Liver weight compared to HFD Vehicle (in words) ([2]; both groups (10 and 30 mg/kg), corrected by the initial BW, p=0.12): trend toward liver weight reduction
Steatosis score change compared to the HFD group ([3]; 30 mg/kg p.o., p<0.05): −57%
Total NAS value versus HFD Vehicle ([3]; 30 mg/kg, p=0.126): trend toward significance
Lobular inflammation score ([3]; 30 mg/kg, no longer significantly different from the Chow Vehicle control): reduced
Body weight (BW) compared with HFD Vehicle ([4]; 10 and 30 mg/kg p.o., days 13 to 32, p<0.05): significantly reduced body weight (BW)
BW gain from day 1 to 57 compared with HFD Vehicle ([4]; 10 and 30 mg/kg p.o., p=0.098): trend towards reduced BW gain
Daily food intake compared with HFD Vehicle ([4]; 10 and 30 mg/kg): did not affect

CCOc1nc2cc(Cl)c(OC)cc2n1CCCNC(C)=O [Compound of formula II, N-[3-(5-Chloro-2-ethoxy-6-methoxy-benzoimidazol-1-yl)-propyl]-acetamide]
Fat ([1]; 10 mg/kg): 20.8 ± 2.3 %
Final carcass weight ([1]; 10 mg/kg): 587.6 ± 6.3 g
Protein ([1]; 10 mg/kg): 19.2 ± 0.6 %
Water ([1]; 10 mg/kg): 56.0 ± 1.8 %
Fat ([1]; 30 mg/kg): 17.9 ± 2.3 %
Final carcass weight ([1]; 30 mg/kg): 593.3 ± 11.4 g
Protein ([1]; 30 mg/kg): 19.8 ± 0.5%
Water ([1]; 30 mg/kg): 58.4 ± 1.9^ %
Body composition parameters (water, protein, fat content, final carcass weight) against HFD Vehicle [1]: No effect
Daily BW gain ([4]; 10 and 30 mg/kg): no significant effects
Daily food intake compared with HFD Vehicle ([4]; 10 and 30 mg/kg): did not affect
HOMA-IR compared to HFD Vehicle (in words) ([5]; 10 and 30 mg/kg, day 51): did not alter
Plasma glucose compared to HFD Vehicle (in words) ([5]; 10 and 30 mg/kg, day 51): did not alter
Plasma insulin compared to HFD Vehicle (in words) ([5]; 10 and 30 mg/kg, day 51): did not alter

COc1ccc2[nH]cc(CCNC(C)=O)c2c1 [Melatonin, N-acetyl-5-methoxytryptamine]
Emax [6]: 100%

CCOc1ccc(Cc2cc([C@@H]3O[C@H](CO)[C@@H](O)[C@H](O)[C@H]3O)ccc2Cl)cc1 [Dapagliflozin]
Fat ([1]; 5 mg/kg): 16.8 ± 1.3^ %
Final carcass weight ([1]; 5 mg/kg): 564.5 ± 9.4 g
Protein ([1]; 5 mg/kg): 20.6 ± 0.4%
Water ([1]; 5 mg/kg): 58.9 ± 1.0^ %
Brown adipose tissue weight [2, 12]: 0.679 ± 0.047
Epididymal fat pads weight [2, 12]: 12.2 ± 0.7
Gastrocnemius weight [2, 12]: 3.34 ± 0.09
Liver weight [2, 12]: 20.9 ± 0.5
Liver weight ([2]; 5 mg/kg, data adjusted for BW on day 65/66, mean ± SEM): 21.6 ± 0.3
Brown adipose tissue weight [2, 13]: 0.697 ± 0.050
Epididymal fat pads weight [2, 13]: 13.0 ± 0.7
Gastrocnemius weight [2, 13]: 3.37 ± 0.09
Liver weight change compared to HFD Vehicle ([2]; 5 mg/kg, data corrected for the terminal BW, p<0.01): +10.8%
Histopathology parameters (steatosis, lobular inflammation, hepatocellular ballooning, NAS) versus HFD Vehicle ([3]; 5 mg/kg): no effect
Liver glycogen concentration compared to HFD Vehicle (in words) [7]: No effect
Liver glycogen content compared to HFD Vehicle (in words) [7]: No effect
HOMA-IR change compared to HFD Vehicle [5, 14]: −66.7%
Plasma glucose change compared to HFD Vehicle [5, 14]: −21.6%
Plasma insulin change compared to HFD Vehicle [5, 14]: −56.7%
